From patent US20150025120A1, “PYRAZOLE-ALCOHOL COMPOUNDS AND PHARMACEUTICAL USE THEREOF” (JAPAN TOBACCO INC., priority 2013, published 2015)

Columns and labels:
tissue PDH activity = assay: Ex vivo PDH activation assay (liver and epididymal adipose tissue after oral administration); type: in vivo, Sprague-Dawley rats; details: 3 mg/kg, rat, mean ± standard deviation
Procedure: The action of test compound on tissue PDH activity was evaluated. NADH production was detected via p-iodonitrotetrazolium violet (INT)-coupled system to measure PDH activity.
Normal male Sprague-Dawley rats were randomly allocated to the vehicle group and the test compound groups. The vehicle (0.5% aqueous methylcellulose solution, 5 mL/kg) or the test compound was orally administered to the rats. At 5 or 20 hr after administration, the rats were anesthetized with an intraperitoneal injection of sodium pentobarbital (60 mg/kg), and liver slices and epididymal adipose tissues were collected.
(§1) To the liver slices were rapidly added 9 volumes of ice-cold homogenization buffer (0.25 mol/L sucrose, 5 mmol/L tris(hydroxymethyl)aminomethane hydrochloride (pH 7.5), 2 mmol/L EDTA), and the mixtures were homogenized using a Polytron homogenizer. The homogenates were centrifuged at 600×g, 4° C. for 10 min to obtain the supernatant. The supernatants (1 mL) were centrifuged at 16,000×g, 4° C. for 10 min to collect the precipitates. The precipitates were washed by resuspension in the homogenization buffer (1 mL) and centrifuged in the same manner. The precipitates were frozen with liquid nitrogen and stored at −80° C. as the liver mitochondrial fraction.
as §1, with “adipose tissues” for “liver slices”, “3” for “9”, “of an” for “of”, “buffer,” for “buffer (0.25 mol/L sucrose, 5 mmol/L tris(hydroxymethyl)aminomethane hydrochloride (pH 7.5), 2 mmol/L EDTA),”, “supernatants” for “supernatants (1 mL)”, “adipose tissue” for “liver”
The mitochondrial fractions were thawed and suspended with the sample buffer (0.25 mol/L sucrose, 20 mmol/L tris(hydroxymethyl)aminomethane hydrochloride (pH 7.5), 50 mmol/L potassium chloride, and 1 mL/L 4-(1,1,3,3-tetramethylbutyl)phenyl-polyethylene glycol (Triton X-100)). Active PDH activity (PDHa activity) and total PDH activity (PDHt activity) were measured to evaluate the PDH activity. For the measurement of the PDHt activity, equal amounts of the mitochondrial suspension and the activation buffer (0.25 mol/L sucrose, 20 mmol/L tris(hydroxymethyl)aminomethane hydrochloride (pH 7.5), 50 mmol/L potassium chloride, 1 mL/L Triton X-100, 4 mmol/L calcium chloride, 40 mmol/L magnesium chloride, 10 mmol/L sodium dichloroacetate) were mixed, and the mixtures were incubated at 37° C. for 10 min. Forty microliters of the mitochondrial suspensions diluted with a sample buffer were added to a 96-well microplate for activity measurement and blank measurement. Then 180 μL of the reaction mixture (0.056 mmol/L potassium phosphate buffer (pH 7.5), 5.6 mmol/L DL-carnitine, 2.8 mmol/L NAD, 0.22 mmol/L thiamin pyrophosphate, 0.11 mmol/L Coenzyme A, 1.1 mL/L Triton X-100, 1.1 mmol/L magnesium chloride, 1.1 g/L bovine serum albumin, 0.67 mmol/L INT, 7.2 μmol/L phenazine methosulfate, 28 mmol/L sodium oxamate) was added to each well, and then 20 μL of 50 mmol/L sodium pyruvate for activity measurement or water for blank measurement were added. The mixtures were incubated at room temperature under shading. The absorbances at 500-750 nm, which were attributable to reduction of INT, the final electron acceptor, were measured using a microplate reader over time and the changes in the absorbance were calculated. The PDH activity was calculated by subtraction of the change in absorbance of the blank well from that of the activity measurement well. The percentage of the PDHa activity to the PDHt activity was calculated and taken as an index of the PDH activation.

[1] = biological target: T1, hERG current (hERG-transfected HEK293 cells) (Homo sapiens, UniProt Q12809); assay: hERG whole cell patch clamp test; type: cell-based
T1 construct: host or cells: HEK293
T1 sequence (Q12809 whole entry): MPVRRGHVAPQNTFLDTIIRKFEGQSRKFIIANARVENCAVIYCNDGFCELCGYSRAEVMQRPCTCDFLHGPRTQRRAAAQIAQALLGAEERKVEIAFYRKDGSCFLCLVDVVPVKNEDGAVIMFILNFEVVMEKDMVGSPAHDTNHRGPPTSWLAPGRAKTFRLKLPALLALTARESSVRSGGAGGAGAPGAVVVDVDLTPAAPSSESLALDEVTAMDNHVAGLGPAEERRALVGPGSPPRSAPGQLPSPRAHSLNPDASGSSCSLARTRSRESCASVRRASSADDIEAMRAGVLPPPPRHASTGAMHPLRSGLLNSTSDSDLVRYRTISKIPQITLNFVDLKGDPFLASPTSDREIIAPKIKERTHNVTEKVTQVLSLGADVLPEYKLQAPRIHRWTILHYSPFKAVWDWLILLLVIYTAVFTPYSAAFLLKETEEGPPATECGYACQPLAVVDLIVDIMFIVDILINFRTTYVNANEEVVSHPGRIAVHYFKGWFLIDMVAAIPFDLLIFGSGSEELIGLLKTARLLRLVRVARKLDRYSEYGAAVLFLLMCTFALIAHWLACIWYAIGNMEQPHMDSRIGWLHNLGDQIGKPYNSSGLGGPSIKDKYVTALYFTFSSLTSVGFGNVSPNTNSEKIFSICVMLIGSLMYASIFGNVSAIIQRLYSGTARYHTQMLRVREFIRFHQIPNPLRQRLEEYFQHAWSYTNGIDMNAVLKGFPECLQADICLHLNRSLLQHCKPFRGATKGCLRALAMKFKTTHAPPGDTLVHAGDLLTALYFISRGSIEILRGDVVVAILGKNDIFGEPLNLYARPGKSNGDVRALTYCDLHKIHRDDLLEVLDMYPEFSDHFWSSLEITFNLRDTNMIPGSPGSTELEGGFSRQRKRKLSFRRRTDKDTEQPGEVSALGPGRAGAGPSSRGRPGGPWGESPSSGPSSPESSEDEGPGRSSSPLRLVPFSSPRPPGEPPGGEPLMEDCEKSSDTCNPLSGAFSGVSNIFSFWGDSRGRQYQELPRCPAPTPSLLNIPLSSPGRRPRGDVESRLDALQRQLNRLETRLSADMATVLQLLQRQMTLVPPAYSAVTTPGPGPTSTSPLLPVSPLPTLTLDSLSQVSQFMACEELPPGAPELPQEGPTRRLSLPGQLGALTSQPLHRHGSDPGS
Procedure: Using human ether-a-go-go related gene (hERG)-transfected HEK293 cells (Cytomyx Limited), an influence on hERG current was examined according to the whole cell patch clamp technique. The hERG-transfected HEK293 cells were passaged using a CO2 incubator (BNA-111, TABAI ESPEC CORP.) under the set conditions of 37° C., 5% CO2, saturated humidity. Culture containers used were Collagen Type I Coated 75 cm^2 flask (4123-010, AGC TECHNO GLASS CO., Ltd.) and Collagen Type I Coated 35 mm culture dish (4000-010, AGC TECHNO GLASS CO., Ltd.). The culture medium used was E-MEM (Eagle Minimum Essential Medium (Earle's Salts, Nikken biomedical laboratory) added with 10% FCS (Fetal calf serum, BioWest, L.L.C.) and 1% MEM Non-Essential Amino Acids Solution (NEAA, Invitrogen Corporation). Geneticin for the selection of hERG gene expressing cells was added thereto to a concentration of 400 μg/mL. As the cells for the measurement, 3×10^4 hERG-transfected HEK293 cells were plated on a 35 mm culture dish 4 to 7 days before measurement of the hERG current. The culture dish produced for the measurement contained the above-mentioned culture medium without geneticin (Invitrogen Corporation).
The highest evaluation concentration of each compound was determined from the highest concentration at which precipitation was not found in the standard extracellular fluid (NaCl: 140 mmol/L, KCl: 2.5 mmol/L, MgCl2: 2 mmol/L, CaCl2: 2 mmol/L, HEPES: 10 mmol/L, glucose: 10 mmol/L (adjusted to pH 7.4 with Tris-base)). As the application method, each solution to be applied was ejected from a Y-tube having a tip diameter of about 0.25 mm, which was adjacent (about 2 mm) to the cells, and applied to the cells. The ejection rate was about 0.4 mL/min.
The experiment was performed at room temperature under a phase contrast microscope. The 35 mm culture dish plated with the cells was set on a measurement apparatus, and the standard extracellular fluid was continuously applied to the cells from the Y-tube. A glass electrode for the measurement was filled with an intracellular fluid (Potassium Gluconate: 130 mmol/L, KCl: 20 mmol/L, MgCl2: 1 mmol/L, ATP-Mg: 5 mmol/L, EGTA: 3.5 mmol/L, HEPES: 10 mmol/L (adjusted to pH 7.2 with Tris-base)). A conventional whole cell patch clamp method was applied to the cells, and the maintenance electric potential was set to −80 mV. Under a fixed electric potential, the whole cell current was amplified by an amplifier for patch clamp (AXOPATCH-200B, Axon Instruments, Inc.), and the data was loaded into a computer (IMC-P642400, Intermedical Co., Ltd.) using a data acquisition analysis software (pCLAMP 9.2, Axon Instruments, Inc.).
The measurement of the hERG current was performed in the following two steps. In both cases, the hERG current was initiated by giving a command potential (maintenance electric potential −80 mV, prepulse+20 mV, 1.5 sec, test-pulse −50 mV, 1.5 sec).
Step (1): The above-mentioned command potential was given at 0.1 Hz for 2 min.
Step (2): The above-mentioned command potential was subjected to P/3 subtraction of pCLAMP 9.2 to remove leak current. This was repeated three times and an average thereof was taken as hERG current.
Subsequent to step (1), Step (2) was performed (about 3 min), and the maximum tail current obtained by applying a test-pulse to the hERG current obtained by the method of step (2) was taken as hERG current value. Hereafter, the operations of (1) and (2) were alternately repeated until completion of the experiment and the hERG current value was measured.
Stable hERG current value was recorded three times (about 10 min), and the standard extracellular fluid was instantaneously exchanged with each application fluid. The hERG current value was measured three times (about 10 min) in the same manner during perfusion of the application fluid, and the current value obtained by the 3rd measurement was taken as hERG current value after perfusion of the application fluid. […]

[2] = adipose tissue, 5 hr after oral administration
[3] = adipose tissue, 20 hr after oral administration
[4] = liver, 5 hr after oral administration
[5] = liver, 20 hr after oral administration

SMILES | PDHa activity (% PDHt activity) (tissue PDH activity; [2]) | PDHa activity (% PDHt activity) (tissue PDH activity; [3]) | PDHa activity (% PDHt activity) (tissue PDH activity; [4]) | PDHa activity (% PDHt activity) (tissue PDH activity; [5]) | hERG inhibition rate (%) ([1]; concentration 3 μmol/L) | hERG inhibition rate (%) ([1]; concentration 30 μmol/L)
CC(C)(O)COc1cc(-c2cnn(CCO)c2)c2c(c1)[C@@](O)(C(F)(F)F)c1ccccc1-2 [compound (C), (9R)-4-[1-(2-Hydroxyethyl)-1H-pyrazol-4-yl]-2-(2-hydroxy-2-methylpropoxy)-9-(trifluoromethyl)-9H-fluoren-9-ol] | 53 ± 4 | 28 ± 7 | 44 ± 5 | 13 ± 3 | 11.5 | 69.0
CC(C)(C(N)=O)n1cc(-c2cc(F)cc3c2-c2ccccc2[C@]3(O)C(F)(F)F)cn1 [compound (D), 2-{4-[(9R)-2-Fluoro-9-hydroxy-9-(trifluoromethyl)-9H-fluoren-4-yl]-1H-pyrazol-1-yl}-2-methylpropanamide] | 43 ± 7 | 24 ± 3 | 41 ± 15 | 20 ± 1 | 9.4 | 67.5
